Patent publication US5045566A, “Novel imidate insecticides” (ICI Americas Inc., priority 1989, dated 1991)

Columns and labels:
Type in all cases: in vivo
[1] = system: Housefly [Musca domestica]; assay: Housefly contact mortality in dishes (HF), 48 hours; details: μg of test compound per 25 female flies
Procedure, shortened: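 Dose range started at 100 μg per 25 female flies and went downward. Insects (1-2 days old) contacted a dried acetone/peanut-oil deposit in dishes; LC50 values come from dosage-mortality curves at 48 h.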

[2] = system: Black Bean Aphid [Aphis fabae (Scop.)]; assay: Black bean aphid spray test on nasturtium (BBA), 48 hours; details: percent of test compound in sprayed solution
Procedure, shortened: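 LC50, given as percent test compound in the sprayed liquid, was calculated from dosage-mortality curves using concentrations from 0.05% downward. Sprays in 50:50 acetone-water went to runoff on ~5 cm nasturtiums carrying 25-50 aphids of mixed ages, one day after infestation. Deaths were counted 48 h later under greenhouse conditions.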

[3] = system: Tobacco Budworm [Heliothis virescens (Fabricius)] larvae; assay: Tobacco budworm larvae, contact (TBW-C), 5 days; details: percent in solution, second-instar larvae
Method: The compounds in Tables 1 and 2 above were tested for insecticidal activity using the following testing procedures. LC50 values, based on the results of these tests and calculated according to dosage-mortality curves, are expressed in Table 3.
Tobacco Budworm [Heliothis virescens (Fabricius)]:
(a) Contact: Test compounds were diluted in a 50-50 acetone-water solution. Cotton (Gossypium sp.) cotyledons were immersed in the test solutions for 2-3 seconds and placed on a wire screen to dry. The dried leaves were placed in petri dishes containing a moistened piece of filter paper and infested with 5 second-instar tobacco budworm larvae. The dishes were placed in a high humidity chamber for 5 days, and percent mortality of the larvae recorded. Test concentrations ranged from 0.1% downward. The LC-50 values are expressed below in Table 3 under the heading "TBW-C" in terms of percent of the test compound in the solution.

[4] = system: Tobacco Budworm [Heliothis virescens (Fabricius)] eggs; assay: Tobacco budworm eggs (TBW-E); details: percent in solution; 2-day old eggs
Procedure, shortened: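 LC50 is given as percent compound in the dipping solution, fitted from dosage-mortality curves. Two-day-old eggs on paper towel were dipped in acetone solutions (top concentration 0.1%), kept at 78° F on rearing medium, and scored after control hatch and larval feeding.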

[5] = system: Cabbage Looper [Trichoplusia ni (Hubner)]; assay: Cabbage looper leaf dip (CL), 3-5 days; details: percent in solution, second-instar larvae
Procedure, shortened: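 LC50, as percent test compound in solution, derived from dosage-mortality curves; concentrations started at 0.1% and went lower. Five second-instar larvae per dish fed on acetone-water-dipped, dried squash cotyledons in a humid chamber. Deaths recorded 3-5 days post-infestation.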

[6] = system: Aster Leafhopper [Macrosteles fascifrens (Stal)]; assay: Aster leafhopper on dipped oat seedlings (LH), 48 hours; details: percent in solution, adults/nymphs
Procedure, shortened: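 Three ~10 cm oat seedlings per cup were dipped 2-3 seconds in 50-50 acetone-water compound solutions, dried, and caged with ten adult/nymph leafhoppers. Mortality was counted after 48 hours at concentrations from 0.05% downward. LC50, as percent compound in solution, came from dosage-mortality curves.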

[7] = system: Maize weevil [Sitophilus zeamais (Motschulsky)]; assay: Maize weevil on dipped corn seeds (MW), 48 hours; details: percent in solution, adult weevils
Procedure, shortened: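 LC50, given as percent of compound in dipping solution, comes from dosage-mortality curves over concentrations descending from 0.01%. Four corn seeds soaked 2-3 s in 50:50 acetone:water solution were dried and held with 10 adult weevils, about 25° C, mortality read after 48 h.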

Row | SMILES | LC50 HF [1] [µg] | LC50 BBA [2] [%] | LC50 TBW C (contact) [3] [%] | LC50 TBW E (eggs) [4] [%] | LC50 CL [5] [%] | LC50 LH [6] [%] | LC50 MW [7] [%]
1 | CC(C)(C)C(=Nc1ccc(Cl)cc1)OCc1cccc(Oc2ccccc2)c1 [Compound 30] | > 100 | > 0.05 | 0.01 | > 0.1 | 0.003 | > 0.05 | > 0.01
2 | CC(C)C(=Nc1ccc(Cl)c(Cl)c1)OCc1cccc(Oc2ccc(F)cc2)c1 [Compound 37] | 21 |  | 0.0005 | 0.014 | 0.0004 | 0.002 | 0.009
3 | CC(C)C(=Nc1c(F)c(F)c(F)c(F)c1F)OCc1cccc(Oc2ccccc2)c1 [Compound 51] | 25 | 0.01 | 0.0025 | 0.067 | 0.001 | 0.001 | 
4 | CC(C)C(=Nc1ccc(F)c(F)c1)OCc1cccc(Oc2ccc(F)cc2)c1 [Compound 60, N-(3,4-Difluorophenyl)-O-(4'-fluoro-3-phenoxybenzyl)isobutyrylimidate] | 8 |  | 0.0009 | 0.017 | 0.001 | 0.002 | 0.0075
5 | Cc1ccc(N=C(OCc2cccc(Oc3ccccc3)c2)C(C)C)cc1F [Compound 75] | 5 | 0.0006 | 0.0075 | 0.01 | 0.0025 | 0.0008 | 
6 | CC(C)C(=Nc1ccc(F)c(C(F)(F)F)c1)OCc1cccc(Oc2ccc(F)cc2)c1 [Compound 120] | 14 | 0.0006 | 0.0025 | 0.04 | 0.00015 | 0.0003 | > 0.01
7 | CCOc1ccc(N=C(OCc2cccc(Oc3ccccc3)c2)C(Cl)Cl)cc1 [Compound 138] | 19 | 0.003 | 0.015 | 0.08 | 0.005 |  | > 0.01
8 | CC(C)(C)c1ccc(N=C(OCc2cccc(Oc3ccccc3)c2)C(Cl)Cl)cc1 [Compound 140] | > 100 | 0.05 | > 0.1 | > 0.1 | < 0.1 |  | 
9 | COc1ccccc1N=C(OCc1cccc(Oc2ccccc2)c1)C(C)C [Compound 145] | > 100 | > 0.05 | 0.05 | > 0.1 | 0.05 | > 0.05 | 
10 | COc1ccc(N=C(OCc2cccc(Oc3ccccc3)c2)C(C)C)c(OC)c1 [Compound 146] | 40 | 0.05 | 0.025 | > 0.1 | 0.017 |  | 
11 | CC(=O)c1ccc(N=C(OCc2cccc(Oc3ccccc3)c2)C(C)C)cc1 [Compound 147] | 10 | 0.03 | 0.0075 | > 0.1 | 0.01 |  | 
12 | CC(C)C(=Nc1cccc(Cl)c1)OCc1cccc(Oc2ccc(F)cc2)c1 [Compound 194] | 10 | 0.001 | 0.0017 | 0.04 | 0.0005 | 0.0005 | > 0.01
13 | CC(C)C(=Nc1ccc(F)c(Cl)c1)OCc1cccc(Oc2ccc(C#N)cc2)c1 [Compound 196] | 17 |  | 0.001 | > 0.1 | 0.0006 | > 0.05 | > 0.01
14 | CC(C)C(=Nc1cc(F)cc(F)c1)OCc1cccc(Oc2ccc(F)cc2)c1 [Compound 199] | 8 |  | 0.003 | > 0.1 | 0.0006 |  | > 0.01
15 | CC(C)C(=Nc1cccc(C(F)(F)F)c1)OCc1cccc(Oc2ccc(F)cc2)c1 [Compound 202] | 18 | 0.003 | 0.0007 | > 0.1 | 0.00024 | 0.0003 | > 0.01
16 | CC(C)(C)C(=Nc1ccc(F)c(Cl)c1)OCc1cccc(Oc2ccc(F)cc2)c1 [Compound 204] | > 100 |  | 0.004 | > 0.1 | 0.0023 |  | > 0.01
17 | CC(C)C(=Nc1ccc(F)cc1F)OCc1cccc(Oc2ccc(F)cc2)c1 [Compound 209] | 17 | 0.01 | 0.005 | 0.1 | 0.0007 | 0.001 | > 0.01
18 | CCC(C)C(=Nc1ccc(F)c(Cl)c1)OCc1cccc(Oc2ccc(F)cc2)c1 (stereo not shown) [Compound 210] | 35 | 0.01 | 0.0015 | 0.045 | 0.00028 |  | > 0.01
19 | CC(C)C(=Nc1ccc2c(c1)OC(C)(C)O2)OCc1cccc(Oc2ccc(F)cc2)c1 [Compound 219] | 50 | 0.003 | 0.004 | 0.027 | 0.00025 |  | > 0.01
20 | CC(C)C(=Nc1ccc(Br)cc1)OCc1cccc(Oc2ccc(F)cc2)c1 [Compound 226] | 16 | 0.01 | 0.001 | 0.1 | 0.0005 | 0.002 | 0.009
21 | CC(C)C(=Nc1ccc(I)cc1)OCc1cccc(Oc2ccc(F)cc2)c1 [Compound 234] | 38 | 0.003 | 0.0013 | 0.09 | 0.00045 | 0.003 | > 0.01
22 | CC(C)C(=Nc1ccc(F)c(Cl)c1)OCc1cccc(Oc2ccc(Br)cc2)c1 [Compound 238] | 25 | 0.003 | 0.0004 | 0.05 | 0.0002 | > 0.05 | > 0.01
23 | CC(C)C(=Nc1ccc(F)c(Br)c1)OCc1cccc(Oc2ccc(F)cc2)c1 [Compound 253] | 10 | 0.002 | 0.0005 | > 0.1 | 0.00013 | 0.003 | > 0.01
24 | CC(C)C(=Nc1cccc(C(F)(F)F)c1)OCc1ccc(F)c(Oc2ccc(Cl)cc2)c1 [Compound 266] | 10 | > 0.05 | 0.0007 | 0.06 | 0.00016 |  | 
25 | CC(C)C(=Nc1ccc(F)c(C(F)(F)F)c1)OCc1ccc(F)c(Oc2ccc(Cl)cc2)c1 [Compound 297] | 23 |  | 0.00075 | 0.025 | 0.00027 | 0.0001 | 0.0071
26 | C=C(C)C(=Nc1ccc(C(F)(F)F)cc1)OCc1ccc(F)c(Oc2ccc(Cl)cc2)c1 [Compound 432] | < 100 | 0.001 | < 0.1 | 0.032 | 0.0012 |  | > 0.01
27 | CC(C)C(=Nc1ccc(F)c(Cl)c1)OCc1cccc(Oc2ccccc2)n1 [Compound 462] | 7 | 0.001 | 0.0025 | 0.04 | 0.001 | 0.001 | > 0.05
